Assay results taken from US20020028918A1, “Styryl dyes” (KABUSHIKI KAISHA HAYASHIBARA SEIBUTSU KAGAKU KENKYUJO, priority 2000, published 2002).

Assays:
[1] = Light resistance of styryl dye thin layer under xenon lamp exposure; format: physicochemical; settings: thin layer on glass, 500 W xenon lamp 25 min, transmittance at 600 nm
Procedure: Light-resistance Improvement of Styryl Dyes
Thereafter, in the usual manner, a prescribed amount of the resulting solution was dropped on either surface of a polished glass substrate, 5 cm×5 cm, while the glass substrate was rotated at a rotation rate of 1,000 rpm for one minute to uniformly coat the solution thereupon, and sequentially blown with hot air and cold air to dry the coated solution.
The resulting glass substrates coated with the styryl dyes were measured for transmittance (T0) at a wavelength of 600 nm, and then exposed with light for 25 min using a 500 W xenon lamp. Immediately after that, the resulting substrates were remeasured for transmittance (T) at a wavelength of 600 nm, and the transmittance of T and T0 dye substrated for the Equation 1 to calculate the residual percentage (%). In parallel, control systems, which 15 (mg) of the conventional compound represented by Chemical Formula 44 was dissolved to TFP with or without two mg of the azo organic metal complex represented by Chemical Formula 38 as a light-resistant improver, were provided and treated similarly as above. [formula]

[2] = Thermal property by DTA and TGA (decomposition point)
Excerpt: Thermal Property of Cyanine Dye
An adequate amount of any one of the styryl dyes of the present invention in Table 1 as test specimens was placed in a vessel and subjected to conventional differential thermal analysis (hereinafter abbreviated as “DTA”) and thermogravimetric analysis (hereinafter abbreviated as “TGA”) using “MODEL TG/DTA 220”, a digital thermo analyzer commercialized by Seiko Instruments Inc., Tokyo, Japan, to determine their melting points, i.e., temperatures at which the styryl dyes as test specimens begin to absorb heat on TGA, and decomposition points, i.e., temperatures at which the styryl dyes as test specimens begin to lose their weight on DTA. In parallel, the conventional related compound represented by Chemical Formula 44 was analyzed similarly as above. […] In TGA and DTA, the environmental temperature was set to an increasing temperature mode at a rate of 10° C./min.

Which “Residual percentage of dye (%)” value ([1]; no light-resistant improver added (Formula 26 is itself combined with azo organic metal complex anion)) does the source give for CN(C)c1ccc(C=CC2=[N+](C)c3ccc(Cl)cc3C2(C)C)cc1.Cc1ccc(S(=O)(=O)[O-])cc1 [Chemical Formula 44] here?
Its value is 3.2%.

And the “Residual percentage of dye (%)” value ([1]; with addition of the azo organic metal complex of Chemical Formula 38)?
The value was 89.5%.

What about the “Decomposition point (° C.)” value ([2]; DTA/TGA, MODEL TG/DTA 220, temperature increasing at 10° C./min) of the same compound?
Its value is 236.1 °C.

And the “Decomposition behaviour around the decomposition point” value ([2]; TGA/DTA, 10° C./min)?
Its value is “very slowly decomposed at around the decomposition point”.
